In brackets after ≈: the same amount, converted by molar mass. Several values for one entry are separate records, joined by “and”; a condition that tells them apart may be missing. Equal values may be shown once. Positions of bridges follow the written chain, without caps; N, C: chain ends. Residues, ends and D or L forms follow the SMILES beside them. No end group written: not given here.
Columns and labels:
[1] = system: Staphylococcus aureus (NCTC10788); assay type: cell-based
Experimental: (§1) The antimicrobial assay was carried out to detect the minimum inhibitory concentration (MIC) and the minimum bactericidal concentration (MBC) of each peptide on the microbes as described previously. Seven different microorganisms were used in the assay: Gram-positive bacteria Staphylococcus aureus (NCTC10788), Enterococcus faecalis (NCTC12697), and methicillin-resistant S. aureus (MRSA) (NCTC12493); Gram-negative bacteria Escherichia coli (NCTC10418), Pseudomonas aeruginosa (ATCC27853), and Klebsiella pneumoniae (ATCC 43816); and fungi Candida albicans (NCYC1467). Bacterial strains were inoculated and grown to mid-log phase in fresh Mueller Hinton broth (MHB) at 37 °C for overnight, then bacteria inoculum suspensions were subcultured until reaching the logarithmic growth phase by measuring OD of the cultures at wavelength 550 nm. Then, 99 µL bacteria and 1 µL peptide solution were mixed in the 96-wells microplate. For positive and negative controls, the bacteria were incubated with antibiotics (Norfloxacin for Gram-positive bacteria and Gram-negative bacteria; Amphotericin B for fungi) solution and MHB medium, respectively. Experiments were repeated five times in five replicates.

[2] = system: Candida albicans (NCYC1467); assay type: cell-based
Experimental: as §1

[3] = system: Pseudomonas aeruginosa (ATCC27853); assay type: cell-based
Experimental: as §1

[4] = system: Escherichia coli (NCTC10418); assay type: cell-based
Experimental: as §1

[5] = system: Klebsiella pneumoniae (ATCC 43816); assay type: cell-based
Experimental: as §1

[6] = system: Enterococcus faecalis (NCTC12697); assay type: cell-based
Experimental: as §1

[7] = system: horse erythrocytes; assay: Haemolytic assay; assay type: cell-based; settings: 2% (v/v) horse red blood cells, 37 °C, 2 h; 1% Triton-X 100 positive control; three times in five replicates
Experimental: The haemolytic assay was carried out to detect the cytotoxicity of each peptide to erythrocytes obtained from fresh defibrinated horse blood as described before. An appropriate volume of horse blood solution was collected via washing and transferring until the supernatant was clear. Then, 2% (v/v) suspension of red blood cells were incubated with peptide at 37 °C for 2 h. For positive and negative controls, the red blood cells were incubated with 1% (v/v) Triton-X 100 and Phosphate-buffered saline (PBS) solution, respectively. The 10% of maximal haemolysis concentration (HC10, μM) was utilised to assess the haemolytic potential. Experiments were repeated three times in five replicates.

[8] = system: methicillin-resistant S. aureus (MRSA) (NCTC12493); assay type: cell-based, Staphylococcus aureus
Experimental: as §1

[9] = system: Staphylococcus aureus (NCTC10788); settings: cited from earlier work
From the text: (§2) Although B1PLC had better activity against bacteria, its potency was slightly lower than that of B1PLB against fungi. As we know, the more positive charge of B1PLC (Table 1) could contribute to an enhanced electrostatic interaction with the negatively charged bacterial cell envelope. Therefore, to try to combine the properties of the two peptides, we designed B1A by substitution of the Asn residue at po ...

[10] = system: Candida albicans (NCYC1467); settings: cited from earlier work
From the text: as §2

[11] = system: Escherichia coli (NCTC10418); settings: cited from earlier work
From the text: as §2

Row | Molecule | MBC S. aureus [1] | MBC C. albicans [2] | MIC C. albicans [2] | MBC P. aeruginosa [3] | MIC P. aeruginosa [3] | MBC E. coli [4] | MIC E. coli [4] | MBC K. pneumoniae [5] | MIC K. pneumoniae [5] | MBC E. faecalis [6] | MIC E. faecalis [6] | HC10 (concentration causing 10% red cell lysis) [7] | MBC MRSA [8] | MIC MRSA [8] | Antimicrobial activity against S. aureus [9] | Antimicrobial activity against C. albicans [10] | Antimicrobial activity against E. coli [11]
1 | CC[C@H](C)[C@@H]1NC(=O)[C@H](C)NC(=O)[C@@H](NC(=O)[C@H](Cc2ccccc2)NC(=O)[C@@H](NC(=O)[C@H](CCCCN)NC(=O)[C@H](Cc2c[nH]c3ccccc23)NC(=O)[C@@H]2CCCN2C(=O)[C@H](Cc2c[nH]c3ccccc23)NC(=O)[C@H](Cc2ccccc2)NC(=O)[C@@H](N)CCCCN)[C@@H](C)CC)CSSC[C@@H](C(=O)O)NC(=O)[C@H](CCCCN)NC(=O)[C@H](CCCCN)NC(=O)[C@H]([C@@H](C)O)NC1=O [KW^3,5B2] (H-KFWPWKIFCAITKKC-OH; disulfide 9-15) | 16 µM (≈ 30.4 µg/mL) | 32 µM (≈ 60.7 µg/mL) | 8 µM (≈ 15.2 µg/mL) | 128 µM (≈ 243 µg/mL) | 64 µM (≈ 121 µg/mL) | 32 µM (≈ 60.7 µg/mL) | 16 µM (≈ 30.4 µg/mL) | 64 µM (≈ 121 µg/mL) | 32 µM (≈ 60.7 µg/mL) | 256 µM (≈ 486 µg/mL) | 256 µM (≈ 486 µg/mL) | 32.07 µM | 32 µM (≈ 60.7 µg/mL) | 8 µM (≈ 15.2 µg/mL) | – | – | –
2 | CC[C@H](C)[C@@H]1NC(=O)[C@H](C)NC(=O)[C@@H](NC(=O)[C@H](Cc2ccccc2)NC(=O)[C@H](Cc2c[nH]c3ccccc23)NC(=O)[C@H](CCCCN)NC(=O)[C@H](Cc2c[nH]c3ccccc23)NC(=O)[C@@H]2CCCN2C(=O)[C@H](CC(C)C)NC(=O)[C@H](Cc2ccccc2)NC(=O)[C@@H](N)CCCCN)CSSC[C@@H](C(=O)O)NC(=O)[C@H](CCCCN)NC(=O)[C@H](CCCCN)NC(=O)[C@H]([C@@H](C)O)NC1=O [KW^5,7B2] (H-KFLPWKWFCAITKKC-OH; disulfide 9-15) | 16 µM (≈ 30.4 µg/mL) | 32 µM (≈ 60.7 µg/mL) | 16 µM (≈ 30.4 µg/mL) | 128 µM (≈ 243 µg/mL) | 64 µM (≈ 121 µg/mL) | 64 µM (≈ 121 µg/mL) | 16 µM (≈ 30.4 µg/mL) | 64 µM (≈ 121 µg/mL) | 32 µM (≈ 60.7 µg/mL) | 512 µM (≈ 971 µg/mL) | 256 µM (≈ 486 µg/mL) | 58.42 µM | 32 µM (≈ 60.7 µg/mL) | 8 µM (≈ 15.2 µg/mL) | – | – | –
3 | CC[C@H](C)[C@@H]1NC(=O)[C@H](C)NC(=O)[C@@H](NC(=O)[C@H](CCCCN)NC(=O)[C@H](C)NC(=O)[C@H](C)NC(=O)[C@H](CC(C)C)NC(=O)CNC(=O)[C@H](C)NC(=O)[C@@H](NC(=O)[C@H](CC(C)C)NC(=O)[C@@H]2CCCN2C(=O)[C@H](CC(C)C)NC(=O)[C@@H](N)Cc2ccccc2)[C@@H](C)CC)CSSC[C@@H](C(=O)O)NC(=O)[C@H](CCCCN)NC(=O)[C@H](CCCCN)NC(=O)[C@H]([C@@H](C)O)NC1=O [Peptide B1A1] (H-FLPLIAGLAAKCAITKKC-OH; disulfide 12-18) | > 512 µM | 512 µM (≈ 952 µg/mL) | 512 µM (≈ 952 µg/mL) | > 512 µM | > 512 µM | > 512 µM | 512 µM (≈ 952 µg/mL) | > 512 µM | > 512 µM | > 512 µM | > 512 µM | could not be calculated and >512 µM | > 512 µM | > 512 µM | – | – | –
4 | CC[C@H](C)[C@@H]1NC(=O)[C@H](C)NC(=O)[C@@H](NC(=O)[C@H](Cc2ccccc2)NC(=O)[C@@H](NC(=O)[C@H](CCCCN)NC(=O)[C@@H]2CCCN2C(=O)[C@H](CC(C)C)NC(=O)[C@@H](N)Cc2ccccc2)[C@@H](C)CC)CSSC[C@@H](C(=O)O)NC(=O)[C@H](CCCCN)NC(=O)[C@H](CCCCN)NC(=O)[C@H]([C@@H](C)O)NC1=O [Peptide B1A2] (H-FLPKIFCAITKKC-OH; disulfide 7-13) | 256 µM (≈ 387 µg/mL) | 512 µM (≈ 773 µg/mL) | 512 µM (≈ 773 µg/mL) | > 512 µM | > 512 µM | 256 µM (≈ 387 µg/mL) | 256 µM (≈ 387 µg/mL) | > 512 µM | > 512 µM | > 512 µM | > 512 µM | could not be calculated and >512 µM | > 512 µM | 256 µM (≈ 387 µg/mL) | – | – | –
5 | CC[C@H](C)[C@@H]1NC(=O)[C@H](C)NC(=O)[C@@H](NC(=O)[C@H](Cc2ccccc2)NC(=O)[C@@H](NC(=O)[C@H](CCCCN)NC(=O)[C@@H]2CCCN2C(=O)[C@H](CC(C)C)NC(=O)[C@H](Cc2ccccc2)NC(=O)[C@H](CCCCN)NC(=O)[C@H](C)NC(=O)[C@H](C)NC(=O)[C@H](CC(C)C)NC(=O)CNC(=O)[C@H](C)NC(=O)[C@@H](NC(=O)[C@H](CC(C)C)NC(=O)[C@@H]2CCCN2C(=O)[C@H](CC(C)C)NC(=O)[C@@H](N)Cc2ccccc2)[C@@H](C)CC)[C@@H](C)CC)CSSC[C@@H](C(=O)O)NC(=O)[C@H](CCCCN)NC(=O)[C@H](CCCCN)NC(=O)[C@H]([C@@H](C)O)NC1=O [Peptide B1A] (H-FLPLIAGLAAKFLPKIFCAITKKC-OH; disulfide 18-24) | 8 µM (≈ 20.8 µg/mL) | 8 µM (≈ 20.8 µg/mL) | 4 µM (≈ 10.4 µg/mL) | 64 µM (≈ 167 µg/mL) | 32 µM (≈ 83.4 µg/mL) | 32 µM (≈ 83.4 µg/mL) | 8 µM (≈ 20.8 µg/mL) | 16 µM (≈ 41.7 µg/mL) | 16 µM (≈ 41.7 µg/mL) | 32 µM (≈ 83.4 µg/mL) | 8 µM (≈ 20.8 µg/mL) | 1.576 µM | 32 µM (≈ 83.4 µg/mL) | 16 µM (≈ 41.7 µg/mL) | – | – | –
6 | FLPLIAGLAANFLPKIFCAITKKC (disulfide 18-24 (inferred)) [Peptide B1PLB, Brevinin-1PLb, brevinin-1 peptide from the skin secretions of Lithobates palustris (Rana palustris)] | – | – | – | – | – | – | – | – | – | – | – | – | – | – | potent antimicrobial activity | potent antimicrobial activity | potent antimicrobial activity
7 | FLPVIAGVAAKFLPKIFCAITKKC (disulfide 18-24 (inferred)) [Peptide B1PLC, brevinin-1PLc, brevinin-1 peptide from the skin secretions of Lithobates palustris (Rana palustris)] | – | – | – | – | – | – | – | – | – | – | – | – | – | – | potent antimicrobial activity | potent antimicrobial activity | potent antimicrobial activity
